From US20100029604A1, “ANTIBACTERIAL COMBINATION AND ITS USE” (priority 2007, published 2010)
In brackets after ≈: the same amount, converted by molar mass. Read-outs that look alike come from different tables or passages of the source.

Legend:
Escherichia coli TEM-1 = type: cell-based
Experimental: (§1) The MIC experiments were performed in duplicate in 96-well microtiter plates using CAMHB. Serial twofold dilutions of each antibiotic either alone or in combination with constant concentration ratio of a β-lactamase inhibitor (2:1) were prepared in CAMHB. The bacterial suspension with final inoculum 10^5 CFU/mL was transferred to the test medium containing the antibacterial substances. In each well of a 96-well microtiter plate was combined 50 μL of bacterial inoculum, 50 μL of antibiotic dilutions (or media for determination of the MIC of the antibiotic in the absence of test compound). Each plate included 4 wells with no bacterial inoculum (negative control) and 4 wells with no test compound and no antibiotic (positive control). The plates were incubated at 35° C. for 24 h. Purity check and colony counts on each inoculum suspension was performed to ensure that the final inoculum concentration routinely obtained closely approximates 5×10^5 CFU/mL. In addition the assay is routinely monitored by testing standard antibiotics and ensuring that MIC values are within the recommended ranges for the respective strains.
(§2) This test permits comparisons to be made between bacterial growth in the presence of antibiotic alone and bacterial growth in the presence of both an antibiotic and a novel (test) compound.

C. freundii AmpC = test: Synergy MIC, inhibitor at 4 μg/mL (Example 4); type: cell-based, Citrobacter freundii; conditions: class C, inhibitor constant 4 μg/mL
Experimental: The in vitro activities of the antibiotics were determined by the broth microdilution method and agar dilution technique as recommended by CLSI guidelines. The MIC experiments were performed in duplicate in 96-well microtiter plates using MHB. Serial twofold dilutions of each antibiotic either alone or in combination with a constant amount (4 μg/mL) of a β-lactamase inhibitor were prepared in MHBII broth. A sterile pipette tip was used to mix the contents of each well (one tip was used going from the low to the high concentration in the same column). The bacterial suspension with final inoculum 10^5 CFU/mL was transferred to the test medium containing the antibacterial substances by a multipoint inoculator (Dynatech, Chantilly, Va., USA). The plates were then incubated at 35° C. for 24 h.
Following procedures identical to those described in Example 3, representative compound of Formula (I) was tested for its ability to enhance antibiotic efficacy against Class C β-lactamase positive bacterial strains that are highly resistant to β-lactam antibiotics. Class C enzymes included AmpC β-lactamases of Enterobacter Cloacae and Citrobacter freundii.

Escherichia coli OXA-5 = test: MIC, characterised β-lactamase producing strain (Example 5, Tables 5-7); type: cell-based
Experimental: as §1, §2

Escherichia coli TEM-2 = test: as above; type: cell-based
Experimental: as §1, §2

E. coli TEM-1 = type: cell-based; conditions: TEM-1, class A, inhibitor constant 4 μg/mL
K. pneumoniae SHV-18 = test: Synergy MIC, inhibitor at 4 μg/mL (Example 4); type: cell-based; conditions: SHV-18, class A, inhibitor constant 4 μg/mL
E. coli SHV-3 = test: Synergy MIC, inhibitor at 4 μg/mL (Example 4); type: cell-based; conditions: SHV-3, class A, inhibitor constant 4 μg/mL
Escherichia coli TEM-5 = test: MIC, characterised β-lactamase producing strain (Example 5, Tables 5-7); type: cell-based
Experimental: as §1, with “Serial twofold dilutions of each antibiotic either alone or in combination with constant concentration ratio of a β-lactamase inhibitor (2:1) were prepared in CAMHB.” left out
as §2

Escherichia coli TEM-50 = test: as above; type: cell-based
Experimental: as §1, with “Serial twofold dilutions of each antibiotic either alone or in combination with constant concentration ratio of a β-lactamase inhibitor (2:1) were prepared in CAMHB.” left out
as §2

[1] = tested on: Pseudomonas aeruginosa OXA-10; test: as above; type: cell-based
Experimental: as §1, with “Serial twofold dilutions of each antibiotic either alone or in combination with constant concentration ratio of a β-lactamase inhibitor (2:1) were prepared in CAMHB.” left out
as §2

[2] = tested on: Klebsiella pneumoniae TEM-31; test: as above; type: cell-based
Experimental: as §1, with “Serial twofold dilutions of each antibiotic either alone or in combination with constant concentration ratio of a β-lactamase inhibitor (2:1) were prepared in CAMHB.” left out
as §2

Escherichia coli TEM-7 = test: as above; type: cell-based
Experimental: as §1, with “Serial twofold dilutions of each antibiotic either alone or in combination with constant concentration ratio of a β-lactamase inhibitor (2:1) were prepared in CAMHB.” left out
as §2

[3] = tested on: Pseudomonas aeruginosa PSE-1; test: as above; type: cell-based
Experimental: as §1, with “Serial twofold dilutions of each antibiotic either alone or in combination with constant concentration ratio of a β-lactamase inhibitor (2:1) were prepared in CAMHB.” left out
as §2

[4] = tested on: Klebsiella pneumoniae TEM-1, SHV; test: as above; type: cell-based
Experimental: as §1, with “Serial twofold dilutions of each antibiotic either alone or in combination with constant concentration ratio of a β-lactamase inhibitor (2:1) were prepared in CAMHB.” left out
as §2

[5] = tested on: Pseudomonas aeruginosa LCR-1; test: as above; type: cell-based
Experimental: as §1, with “Serial twofold dilutions of each antibiotic either alone or in combination with constant concentration ratio of a β-lactamase inhibitor (2:1) were prepared in CAMHB.” left out
as §2

[6] = tested on: Klebsiella pneumoniae LAT-1; test: as above; type: cell-based
Experimental: as §1, with “Serial twofold dilutions of each antibiotic either alone or in combination with constant concentration ratio of a β-lactamase inhibitor (2:1) were prepared in CAMHB.” left out
as §2

Escherichia coli TEM-20 = test: as above; type: cell-based
Experimental: as §1, with “Serial twofold dilutions of each antibiotic either alone or in combination with constant concentration ratio of a β-lactamase inhibitor (2:1) were prepared in CAMHB.” left out
as §2

Escherichia coli SHV-2 = test: as above; type: cell-based
Experimental: as §1, with “Serial twofold dilutions of each antibiotic either alone or in combination with constant concentration ratio of a β-lactamase inhibitor (2:1) were prepared in CAMHB.” left out
as §2

Proteus mirabilis TEM-52 = test: as above; type: cell-based
Experimental: as §1, with “Serial twofold dilutions of each antibiotic either alone or in combination with constant concentration ratio of a β-lactamase inhibitor (2:1) were prepared in CAMHB.” left out
as §2

Escherichia coli TEM-6 = test: as above; type: cell-based
Experimental: as §1, with “Serial twofold dilutions of each antibiotic either alone or in combination with constant concentration ratio of a β-lactamase inhibitor (2:1) were prepared in CAMHB.” left out
as §2

## CO/N=C(\C(=O)N[C@@H]1C(=O)N2C(C(=O)[O-])=C(C[N+]3(C)CCCC3)CS[C@H]12)c1csc(N)n1 [cefepime]
Escherichia coli TEM-1; Escherichia coli TEM-1, functional group 2b, LK-157 in combination constant 4 μg/mL
  MIC: 0.125 µg/mL
C. freundii AmpC
  MIC: 0.8 µg/mL
Escherichia coli OXA-5; Escherichia coli OXA-5, functional group 2d, LK-157 in combination constant 4 μg/mL
  MIC: 0.125 µg/mL
Escherichia coli TEM-2; Escherichia coli TEM-2, functional group 2b, LK-157 in combination constant 4 μg/mL
  MIC: 0.25 µg/mL
E. coli TEM-1
  MIC: 12.8 µg/mL (≈ 26.6 µM)
K. pneumoniae SHV-18
  MIC: 0.8 µg/mL
E. coli SHV-3
  MIC: 0.4 µg/mL
Escherichia coli TEM-5; Escherichia coli TEM-5, functional group 2be, LK-157 in combination constant 4 μg/mL
  MIC: 0.5 µg/mL
Escherichia coli TEM-50; Escherichia coli TEM-50, functional group 2be, LK-157 in combination constant 4 μg/mL
  MIC: 32 µg/mL
[1]; Pseudomonas aeruginosa OXA-10, functional group 2d, LK-157 in combination constant 4 μg/mL
  MIC: 64 µg/mL
[2]; Klebsiella pneumoniae TEM-31, functional group 2br, LK-157 in combination constant 4 μg/mL
  MIC: 0.125 µg/mL
Escherichia coli TEM-7; Escherichia coli TEM-7, functional group 2be, LK-157 in combination constant 4 μg/mL
  MIC: 16 µg/mL
[3]; Pseudomonas aeruginosa PSE-1, functional group 2c, LK-157 in combination constant 4 μg/mL
  MIC: 32 µg/mL
[4]; functional group 2b, unknown, LK-157 in combination constant 4 μg/mL
  MIC: 4 µg/mL
[5]; Pseudomonas aeruginosa LCR-1, functional group 2d, LK-157 in combination constant 4 μg/mL
  MIC: 128 µg/mL
[6]; Klebsiella pneumoniae LAT-1, functional group 1, LK-157 in combination constant 4 μg/mL
  MIC: 0.125 µg/mL
Escherichia coli TEM-20; Escherichia coli TEM-20, functional group 2be, LK-157 in combination constant 4 μg/mL
  MIC: 4 µg/mL
Escherichia coli SHV-2; Escherichia coli SHV-2, functional group 2be, LK-157 in combination constant 4 μg/mL
  MIC: 2 µg/mL
Proteus mirabilis TEM-52; Proteus mirabilis TEM-52, functional group 2be, LK-157 in combination constant 4 μg/mL
  MIC: 16 µg/mL
Escherichia coli TEM-6; Escherichia coli TEM-6, functional group 2be, LK-157 in combination constant 4 μg/mL
  MIC: 4 µg/mL

## CO/N=C(\C(=O)N[C@@H]1C(=O)N2C(C(=O)O)=C(COC(C)=O)CS[C@H]12)c1csc(N)n1 [cefotaxime]
Escherichia coli TEM-1; Table 6, Escherichia coli TEM-1, LK-157 at constant 4 μg/mL in combination
  MIC: 0.063 µg/mL
C. freundii AmpC
  MIC: > 25.6 µg/mL
Escherichia coli OXA-5; Table 6, Escherichia coli OXA-5, LK-157 at constant 4 μg/mL in combination
  MIC: 0.25 µg/mL
Escherichia coli TEM-2; Table 6, Escherichia coli TEM-2, LK-157 at constant 4 μg/mL in combination
  MIC: 0.063 µg/mL
E. coli TEM-1
  MIC: > 25.6 µg/mL
K. pneumoniae SHV-18
  MIC: 3.2 µg/mL
E. coli SHV-3
  MIC: 3.2 µg/mL
Escherichia coli TEM-5; Table 6, Escherichia coli TEM-5, LK-157 at constant 4 μg/mL in combination
  MIC: 0.063 µg/mL
Escherichia coli TEM-50; Table 6, Escherichia coli TEM-50, LK-157 at constant 4 μg/mL in combination
  MIC: 8 µg/mL
[1]; Table 6, Pseudomonas aeruginosa OXA-10, LK-157 at constant 4 μg/mL in combination
  MIC: 64 µg/mL
[2]; Table 6, Klebsiella pneumoniae TEM-31, LK-157 at constant 4 μg/mL in combination
  MIC: 0.063 µg/mL
Escherichia coli TEM-7; Table 6, Escherichia coli TEM-7, LK-157 at constant 4 μg/mL in combination
  MIC: 0.25 µg/mL
[3]; Table 6, Pseudomonas aeruginosa PSE-1, LK-157 at constant 4 μg/mL in combination
  MIC: 16 µg/mL
[4]; Table 6, LK-157 at constant 4 μg/mL in combination
  MIC: 4 µg/mL
[5]; Table 6, Pseudomonas aeruginosa LCR-1, LK-157 at constant 4 μg/mL in combination
  MIC: 64 µg/mL
[6]; Table 6, Klebsiella pneumoniae LAT-1, LK-157 at constant 4 μg/mL in combination
  MIC: 4 µg/mL
Escherichia coli TEM-20; Table 6, Escherichia coli TEM-20, LK-157 at constant 4 μg/mL in combination
  MIC: 2 µg/mL
Escherichia coli SHV-2; Table 6, Escherichia coli SHV-2, LK-157 at constant 4 μg/mL in combination
  MIC: 4 µg/mL
Proteus mirabilis TEM-52; Table 6, Proteus mirabilis TEM-52, LK-157 at constant 4 μg/mL in combination
  MIC: 16 µg/mL
Escherichia coli TEM-6; Table 6, Escherichia coli TEM-6, LK-157 at constant 4 μg/mL in combination
  MIC: 0.5 µg/mL

## CC(C)(O/N=C(\C(=O)N[C@@H]1C(=O)N2C(C(=O)[O-])=C(C[n+]3ccccc3)CS[C@H]12)c1csc(N)n1)C(=O)O [ceftazidime]
Escherichia coli TEM-1; Table 7, Escherichia coli TEM-1, combination at constant concentration ratio (2:1)
  MIC: 0.25 µg/mL
C. freundii AmpC
  MIC: > 25.6 µg/mL
Escherichia coli OXA-5; Table 7, Escherichia coli OXA-5, combination at constant concentration ratio (2:1)
  MIC: 0.5 µg/mL
Escherichia coli TEM-2; Table 7, Escherichia coli TEM-2, combination at constant concentration ratio (2:1)
  MIC: 0.5 µg/mL
E. coli TEM-1
  MIC: 3.2 µg/mL (≈ 5.85 µM)
K. pneumoniae SHV-18
  MIC: 25.6 µg/mL
E. coli SHV-3
  MIC: 0.8 µg/mL
Escherichia coli TEM-5; Table 7, Escherichia coli TEM-5, combination at constant concentration ratio (2:1)
  MIC: 4 µg/mL
Escherichia coli TEM-50; Table 7, Escherichia coli TEM-50, combination at constant concentration ratio (2:1)
  MIC: 8 µg/mL
[1]; Table 7, Pseudomonas aeruginosa OXA-10, combination at constant concentration ratio (2:1)
  MIC: 4 µg/mL
[2]; Table 7, Klebsiella pneumoniae TEM-31, combination at constant concentration ratio (2:1)
  MIC: 0.25 µg/mL
Escherichia coli TEM-7; Table 7, Escherichia coli TEM-7, combination at constant concentration ratio (2:1)
  MIC: 32 µg/mL
[3]; Table 7, Pseudomonas aeruginosa PSE-1, combination at constant concentration ratio (2:1)
  MIC: 2 µg/mL
[4]; Table 7, combination at constant concentration ratio (2:1)
  MIC: 8 µg/mL
[5]; Table 7, Pseudomonas aeruginosa LCR-1, combination at constant concentration ratio (2:1)
  MIC: 4 µg/mL
[6]; Table 7, Klebsiella pneumoniae LAT-1, combination at constant concentration ratio (2:1)
  MIC: 8 µg/mL
Escherichia coli TEM-20; Table 7, Escherichia coli TEM-20, combination at constant concentration ratio (2:1)
  MIC: 2 µg/mL
Escherichia coli SHV-2; Table 7, Escherichia coli SHV-2, combination at constant concentration ratio (2:1)
  MIC: 2 µg/mL
Proteus mirabilis TEM-52; Table 7, Proteus mirabilis TEM-52, combination at constant concentration ratio (2:1)
  MIC: 4 µg/mL
Escherichia coli TEM-6; Table 7, Escherichia coli TEM-6, combination at constant concentration ratio (2:1)
  MIC: ≧128 μg/mL
